Here are results for one molecule from ChEMBL document CHEMBL6092168, “Identification of novel indolinone derivatives as CTSC inhibitors to treat inflammatory bowel disease by modulating inflammatory factors” (Eur J Med Chem, 2024).

Data set [1] deals with Mus musculus. Kind of data set: Anti-inflammatory activity in DSS-induced ulcerative colitis male C57BL/6 mouse model assessed as reduction in proteinase 3 level in serum at 15 to 30 mg/kg administered via gavage for 10 days. The data set is classed as functional, organism-based. The conditions noted are these: dose 15-30 mg/kg, time 10.0 day.
Data set [2] has as its system Mus musculus. Nature of the data set: Anti-inflammatory activity in DSS-induced ulcerative colitis male C57BL/6 mouse model assessed as reduction in Cathepsin C level in colon at 60 mg/kg administered via gavage for 10 days. The arrangement: scale not given: the % may be the effect or the level left. Format: functional. The note with it: time 10 day.
The target in data set [3] is T1, Myeloblastin (Mus musculus) (UniProt Q61096).
T1 sequence (whole entry): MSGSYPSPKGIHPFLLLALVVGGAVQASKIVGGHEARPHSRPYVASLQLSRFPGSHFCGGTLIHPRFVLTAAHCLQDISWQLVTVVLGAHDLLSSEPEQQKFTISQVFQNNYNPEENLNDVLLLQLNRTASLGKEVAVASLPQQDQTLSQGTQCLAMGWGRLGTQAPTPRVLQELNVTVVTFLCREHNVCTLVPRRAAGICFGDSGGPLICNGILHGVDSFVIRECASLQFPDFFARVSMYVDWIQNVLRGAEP
Kind of data set: Induction of proteinase 3 degradation in C57BL/6 mouse bone marrow cells at 10 uM incubated for 24 hrs by Western blot analysis. Format: cell-based. The note with it: Bone marrow cell.

Data set [4] addresses T2, Cathepsin G (Mus musculus) (UniProt P28293).
T2 sequence (whole entry): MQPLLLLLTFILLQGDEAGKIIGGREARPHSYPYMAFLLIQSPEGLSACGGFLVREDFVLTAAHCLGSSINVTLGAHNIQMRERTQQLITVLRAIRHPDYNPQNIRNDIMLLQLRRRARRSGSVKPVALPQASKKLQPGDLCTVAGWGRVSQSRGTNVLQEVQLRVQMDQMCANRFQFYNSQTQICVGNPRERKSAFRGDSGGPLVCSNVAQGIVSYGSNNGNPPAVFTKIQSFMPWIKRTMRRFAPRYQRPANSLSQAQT
Kind of data set: Induction of Cathepsin G degradation in C57BL/6 mouse bone marrow cells assessed as residual activity at 10 uM incubated for 48 hrs by Western blot analysis relative to control. The data set is classed as cell-based. The conditions noted are these: Bone marrow cell. For orientation: A western blot detects proteins with antibodies after separation by electrophoresis.

For the next data set, the target named is Dipeptidyl peptidase 1 (Homo sapiens, UniProt P53634). Nature of the data set: Induction of thermal stabilization of Cathepsin C in human U-937 cell incubated for 1 hrs at 37 to 65 degreeC by CETSA based Western blot analysis. The conditions noted are these: dose 10-20 µM.
Chain of Dipeptidyl peptidase 1 (P53634 25-134 limits assumed): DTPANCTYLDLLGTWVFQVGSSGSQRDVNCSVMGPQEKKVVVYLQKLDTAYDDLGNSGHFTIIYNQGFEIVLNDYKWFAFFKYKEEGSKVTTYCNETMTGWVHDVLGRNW
Chain of Dipeptidyl peptidase 1 (P53634 231-394 limits assumed): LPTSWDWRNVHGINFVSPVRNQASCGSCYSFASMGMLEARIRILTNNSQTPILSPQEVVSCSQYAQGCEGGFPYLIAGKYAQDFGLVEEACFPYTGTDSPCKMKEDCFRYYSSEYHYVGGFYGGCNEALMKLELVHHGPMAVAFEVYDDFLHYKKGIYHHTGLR
Chain of Dipeptidyl peptidase 1 (P53634 395-463 limits assumed): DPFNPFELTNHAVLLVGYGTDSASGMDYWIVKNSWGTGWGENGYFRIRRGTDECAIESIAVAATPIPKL
Data set [5] in a line: MRT in male Sprague-Dawley rat at 10 mg/kg, po measured at 5 to 1440 mins by LC-MS/MS analysis. The data set is classed as ADME, organism-based. The note with it: in vivo, time 5-1440 min.
Data set [6] concerns Mus musculus. Kind of data set: Anti-inflammatory activity in DSS-induced ulcerative colitis male C57BL/6 mouse model assessed as reduction in IL-1 beta expression in serum administered via gavage for 10 days by ELISA. The conditions noted are these: dose 15-60 mg/kg, time 10.0 day. Format: functional, organism-based. For orientation: ELISA stands for enzyme-linked immunosorbent assay.

Data set [7] has as its target T1, Myeloblastin (Mus musculus). Kind of data set: In vivo inhibition of proteinase 3 in C57BL/6 mouse assessed as reduction in proteinase 3 activity in bone marrow at 30 mg/kg, po administered once daily for 6 days by fluorescence based microplate reader relative to control. Format: functional, organism-based. The conditions noted are these: time 6.0 day.
For data set [8], the target named is Voltage-gated inwardly rectifying potassium channel KCNH2 (Homo sapiens, UniProt Q12809). Kind of data set: Inhibition of hERG. Format: toxicity.
Chain of Voltage-gated inwardly rectifying potassium channel KCNH2 (Q12809 whole entry): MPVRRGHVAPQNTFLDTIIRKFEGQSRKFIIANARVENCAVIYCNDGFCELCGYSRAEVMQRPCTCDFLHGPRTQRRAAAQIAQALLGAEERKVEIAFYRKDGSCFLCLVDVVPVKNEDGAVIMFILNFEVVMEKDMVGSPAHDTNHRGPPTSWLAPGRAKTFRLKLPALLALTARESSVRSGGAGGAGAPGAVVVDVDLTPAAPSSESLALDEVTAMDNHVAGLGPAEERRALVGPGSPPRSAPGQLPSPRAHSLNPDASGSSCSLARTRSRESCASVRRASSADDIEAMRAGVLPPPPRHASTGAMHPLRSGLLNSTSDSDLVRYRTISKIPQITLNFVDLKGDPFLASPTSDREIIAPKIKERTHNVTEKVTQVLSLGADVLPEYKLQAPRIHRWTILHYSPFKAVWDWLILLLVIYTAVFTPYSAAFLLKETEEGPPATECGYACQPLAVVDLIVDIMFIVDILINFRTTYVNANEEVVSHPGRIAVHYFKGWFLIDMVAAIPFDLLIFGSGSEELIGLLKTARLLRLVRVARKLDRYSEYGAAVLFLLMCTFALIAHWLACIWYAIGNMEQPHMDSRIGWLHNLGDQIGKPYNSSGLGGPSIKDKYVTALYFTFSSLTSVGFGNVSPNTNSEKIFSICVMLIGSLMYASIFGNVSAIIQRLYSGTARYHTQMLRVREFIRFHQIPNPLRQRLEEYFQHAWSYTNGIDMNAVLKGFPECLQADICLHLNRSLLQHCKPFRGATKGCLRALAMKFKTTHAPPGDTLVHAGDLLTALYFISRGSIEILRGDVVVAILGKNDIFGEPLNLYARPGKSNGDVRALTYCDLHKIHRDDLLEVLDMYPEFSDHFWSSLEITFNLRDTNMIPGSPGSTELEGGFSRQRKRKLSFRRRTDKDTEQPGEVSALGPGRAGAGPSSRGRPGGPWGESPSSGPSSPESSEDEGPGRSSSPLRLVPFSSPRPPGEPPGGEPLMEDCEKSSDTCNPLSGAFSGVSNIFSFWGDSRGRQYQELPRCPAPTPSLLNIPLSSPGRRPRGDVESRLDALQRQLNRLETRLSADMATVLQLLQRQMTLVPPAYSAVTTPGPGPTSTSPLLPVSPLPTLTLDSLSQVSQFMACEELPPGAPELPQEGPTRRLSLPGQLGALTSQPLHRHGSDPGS
Data set [9] can be described thus: Acute toxicity in ICR mouse assessed as body weight loss at 500 mg/kg, po administered twice daily for 7 days. Format: organism-based. The conditions noted are these: in vivo, 168 h, time 7 day.
Data set [10] can be described thus: Half life in male Sprague-Dawley rat at 10 mg/kg, po measured at 5 to 1440 mins by LC-MS/MS analysis. The conditions noted are these: in vivo, time 5-1440 min. The data set is classed as ADME, organism-based.
For data set [11], the target named is T2, Cathepsin G (Mus musculus). Nature of the data set: Induction of Cathepsin G degradation in C57BL/6 mouse bone marrow cells assessed as remaining activity at 10 uM incubated for 12 hrs by Western blot analysis relative to control. The data set is classed as cell-based. The note with it: Bone marrow cell.
Data set [12] addresses T1, Myeloblastin (Mus musculus). Kind of data set: In vivo inhibition of proteinase 3 in C57BL/6 mouse assessed as reduction in proteinase 3 activity in blood administered orally once daily for 6 days by fluorescence based microplate reader. The data set is classed as functional, organism-based. The conditions noted are these: dose 5-30 mg/kg, route po, time 6.0 day.
Data set [13] has as its system Mus musculus. Kind of data set: Anti-inflammatory activity in DSS-induced ulcerative colitis male C57BL/6 mouse model assessed as reduction in proteinase 3 level in colon at 60 mg/kg administered via gavage for 10 days relative to control. The note with it: time 10 day. Also on record: scale not given: the % may be the effect or the level left. The data set is classed as functional.

The subject of data set [14] is Mus musculus. Nature of the data set: Anti-inflammatory activity in DSS-induced ulcerative colitis male C57BL/6 mouse model assessed as reduction in disease activity index (DAI) score at 60 mg/kg administered via gavage for 10 days. The conditions noted are these: time 10.0 day. Format: functional, organism-based.
Data set [15] in a line: Acute toxicity in ICR mouse assessed as kidney pathological change at 1500 mg/kg, po administered daily for 7 days by H and E staining based analysis. The note with it: in vivo, 168 h, time 7 day. The data set is classed as organism-based.
Another data set relates to RAW264.7. Kind of data set: Anti-inflammatory activity in LPS-stimulated mouse RAW264.7 cells assessed as reduction in IL-1 beta production incubated for 24 hrs by ELISA. Format: functional, cell-based. The conditions noted are these: dose 0.62-5 µM.
Data set [16] can be described thus: Acute toxicity in ICR mouse assessed as spleen pathological change at 1500 mg/kg, po administered daily for 7 days by H and E staining based analysis. The data set is classed as organism-based. The note with it: in vivo, 168 h, time 7 day.
For data set [17], the system named is Mus musculus. Nature of the data set: Anti-inflammatory activity in DSS-induced ulcerative colitis male C57BL/6 mouse model assessed as increase in body weight at 60 mg/kg administered via gavage for 10 days. The data set is classed as functional, organism-based. The conditions noted are these: time 10.0 day.
Data set [18] addresses T3, Myeloblastin (Homo sapiens) (UniProt P24158).
T3 sequence (whole entry): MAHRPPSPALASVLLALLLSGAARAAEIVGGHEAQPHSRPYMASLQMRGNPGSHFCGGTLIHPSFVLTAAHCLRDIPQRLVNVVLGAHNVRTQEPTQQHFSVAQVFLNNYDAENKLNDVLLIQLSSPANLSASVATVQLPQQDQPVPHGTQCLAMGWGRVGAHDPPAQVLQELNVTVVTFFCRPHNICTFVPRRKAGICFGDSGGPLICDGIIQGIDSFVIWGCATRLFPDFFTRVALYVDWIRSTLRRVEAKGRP
Nature of the data set: Inhibition of proteinase 3 in human U-937 cells using aminobenzoyl-Val-Ala-Asp-Cys-Ala-Asp-Gln-ethylenediamine 2,4-dinitrophenyl as substrate at 10 uM incubated for 5 days by fluorescence based microplate reader analysis relative to control. The note with it: time 5.0 day. Format: cell-based.

Data set [19] relates to Mus musculus. Kind of data set: Anti-inflammatory activity in DSS-induced ulcerative colitis male C57BL/6 mouse model assessed as reduction in neutrophil elastase level in serum at 15 to 30 mg/kg administered via gavage for 10 days. The data set is classed as functional, organism-based. The conditions noted are these: dose 15-30 mg/kg, time 10.0 day.
The test system of data set [20] is Mus musculus. Kind of data set: Anti-inflammatory activity in DSS-induced ulcerative colitis male C57BL/6 mouse model assessed as increase in colon length administered via gavage for 10 days. The data set is classed as functional, organism-based. The conditions noted are these: dose 15-60 mg/kg, time 10.0 day.

Active and inactive are the calls of the source. No cut-off for these calls is given here.

One may read the MRT as a mean duration of stay, worked out from the concentration-time curve. What is called inhibition is how much of the control response was suppressed. For orientation: IC50 means the concentration that inhibits the measured activity by half. The half-life is how long it takes for the measured level to halve. As to `O=C1Nc2c(cccc2-c2ccc(NC3CCOCC3)cc2)/C1=C/c1ccnc2ccccc12`, the outcome in the data set on Mus musculus [1] and in the data set on Mus musculus [19] was inactive. The Activity in the data set with Mus musculus [2] was 45%; in [4], 17.3%; at Dipeptidyl peptidase 1, “Dose-dependent-effect; Significant Thermal Stability Observed”; in the data set on Mus musculus [6], “Dose-dependent-effect; Significant Reduction Observed In High Dose Group”; in data set [9], “Non-toxic”; in data set [11], 75%. Also, the Activity in the data set on Mus musculus [13] is 47%; in data set [15], “Non-toxic”; in the data set on RAW264.7, “Dose-dependent-effect”; in data set [16], “Non-toxic”; with Mus musculus [20], “Dose-dependent-effect”. Further, the outcome (in data set [3]; in the data set with Mus musculus [14]; with Mus musculus [17]) was Active. The MRT in [5] came out at 2.98 h. Further, the values for the inhibition in [7], in data set [12] and in [18] were 58.6%, “Dose-dependent-effect” and 33.1%, respectively. For the same molecule, the IC50 in [8] was greater than 30 µM. Besides, the half-life in [10] was 1.76 h.
